Molecular target: T1, human TRPC6 (Homo sapiens, UniProt Q9Y210)
T1 construct: expressed in transfected cells
T1 sequence (Q9Y210 1-931): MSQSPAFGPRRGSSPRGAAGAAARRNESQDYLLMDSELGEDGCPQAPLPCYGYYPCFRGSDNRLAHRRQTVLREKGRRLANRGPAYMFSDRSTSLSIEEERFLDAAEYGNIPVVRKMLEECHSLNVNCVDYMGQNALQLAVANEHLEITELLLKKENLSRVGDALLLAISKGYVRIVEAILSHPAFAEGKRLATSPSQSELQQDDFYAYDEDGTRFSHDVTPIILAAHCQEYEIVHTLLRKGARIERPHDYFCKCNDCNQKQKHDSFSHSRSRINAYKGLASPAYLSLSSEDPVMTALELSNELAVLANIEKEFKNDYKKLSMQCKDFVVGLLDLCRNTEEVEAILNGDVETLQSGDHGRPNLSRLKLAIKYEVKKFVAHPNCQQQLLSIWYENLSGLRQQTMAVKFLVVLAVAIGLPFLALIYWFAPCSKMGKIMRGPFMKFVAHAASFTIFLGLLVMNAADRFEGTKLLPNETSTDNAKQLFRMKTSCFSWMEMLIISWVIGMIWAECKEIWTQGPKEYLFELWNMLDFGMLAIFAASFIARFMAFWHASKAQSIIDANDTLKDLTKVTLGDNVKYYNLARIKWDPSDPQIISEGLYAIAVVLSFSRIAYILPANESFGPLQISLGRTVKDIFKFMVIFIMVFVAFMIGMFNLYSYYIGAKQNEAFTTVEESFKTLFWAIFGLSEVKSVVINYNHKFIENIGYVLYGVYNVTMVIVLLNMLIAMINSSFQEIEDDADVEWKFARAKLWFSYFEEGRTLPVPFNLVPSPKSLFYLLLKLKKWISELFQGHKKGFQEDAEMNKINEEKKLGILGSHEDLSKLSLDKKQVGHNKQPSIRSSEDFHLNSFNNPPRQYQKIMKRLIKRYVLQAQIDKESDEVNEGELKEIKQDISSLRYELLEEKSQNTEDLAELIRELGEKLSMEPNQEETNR
Experiment: High Throughput Screening Assay Method 2 (membrane potential dye, GSK1702934A agonist, HEK293 stably transfected with human TRPC6)
Type: cell-based
Settings: antagonist effect against human TRPC6, 3 μM GSK1702934A agonist, HEK293 TRPC6 cells, read-out: Fluorescence TRPC6 IC50
Text: This screening assay measures TRPC6 (transient receptor potential cation channel, subfamily C, member 6) ion channel activation via addition either of the commercially available DAG ligand analogue OAG (1-oleoyl-2-acetyl-sn-glycerol) or of the TRPC6 agonist 1-[1-(4,5,6,7,8-pentahydrocyclohepta[2,1-d]thiophen-2-ylcarbonyl)-4-piperidyl]-3-hydrobenzimidazol-2-one (GSK1702934A). The assay utilizes a FLIPR membrane potential (FMP) dye from Molecular Devices, which is a voltage sensitive indicator with a fluorescent quencher. Changes in membrane potential as measured by the fluorescent signal increase during membrane depolarization provide a measurement of channel activity.
The commercially available HEK293 cell line (ATCC) was stably transfected with an human TRPC6 gene construct in pcDNA3.1(+) (Thermo Fisher) and screened to find a clone with TRPC6 expression. These cells were maintained in growth medium recommended by the manufacturer supplemented with 400 μg/ml G418 to promote retention of the TRPC6 construct. After growing to near confluency, cells were plated at a density of 15,000 cells/well in clear bottom black walled poly-D-Lys coated 384-well tissue culture treated plates (TwinHelix, cat. #GR 4332 CPL) in growth medium lacking G418, and allowed to grow for 24 hrs. Growth media was removed from the wells and cells were then loaded with 20 μL of 0.5× Membrane Potential sensitive dye (Molecular Devices) in the presence of 30 μM BAPTA-AM (Invitrogen) in Tyrode's assay buffer (130 mM NaCl, 5 mM KCl, 0.15 mM CaCl2), 1 mM MgCl2, 5 mM NaHCO3, 20 mM HEPES, pH 7.4) and incubated for 60 min at room temperature in the dark. Ten μL/well of test compound or controls was added to the wells with the FLIPR^TETRA (Molecular Devices) and incubated for 5 minutes. Compounds were tested at eight concentrations (10, 3.16, 1, 0.316, 0.1, 0.0316, 0.01 and 0.00316 μM diluted in Tyrode's assay buffer and 0.5% DMSO, final concentration) with inter-plate duplicate data points. Subsequently, 15 μL/well of GSK1702934A agonist in Tyrode's assay buffer was added to a final concentration of 3 μM by the FLIPR^TETRA and the signal of the emitted fluorescence (Excitation: 510-545 nm, Emission: 565-625 nm) was recorded for 3 minutes. Negative and positive controls were included on each plate. Negative controls wells consisted of cells exposed to Tyrode's assay buffer and agonist solution, but no test compound. Positive control consisted of cells exposed to […] Verapamil hydrochloride (Tocris, cat. #0654) diluted in Tyrode's assay buffer and 0.5% DMSO final concentration and agonist solution. Inhibition was expressed as a percentage of control, with 0% activity being a result in which the response value of the test wells reached a level identical to the wells containing Verapamil plus GSK1702934A and 100% activity being a result in which the response value of the test wells reached a level identical to the wells containing GSK1702934A alone. Genedata Screener® 14.0.6 was used for data analysis to fit IC50 curves.

Compared with Nc1ccc([C@@H]2CCN(C(=O)c3cc(F)c(Oc4ccc(F)cc4)cc3F)[C@H](CO)C2)nn1 [Compound 52b, [(2S,4R)-4-(6-Aminopyridazin-3-yl)-1-[2,5-difluoro-4-(4-fluorophenoxy)benzoyl]piperidin-2-yl]methanol], COc1cc(C(=O)N2CCC(c3ccc(N)nn3)CC2)c(F)cc1Oc1ccc(F)cc1 [Compound 47, 6-{1-[2-Fluoro-4-(4-fluorophenoxy)-5-methoxybenzoyl]piperidin-4-yl}pyridazin-3-amine] is 2.4-fold lower in IC50: 0.08 µM for the first, 0.034 µM for the second. The second is the more potent here.

COc1cc(N)ncc1N1CCN(C(=O)c2cc(F)c(Oc3ccc(F)cc3)cc2F)C2(CC2)C1 [Compound 28, 5-{4-[2,5-Difluoro-4-(4-fluorophenoxy)benzoyl]-4,7-diazaspiro[2.5]octan-7-yl}-4-methoxypyridin-2-amine] and COc1cc(N)ncc1C1CCN(C(=O)c2cc(F)c(Oc3ccc(F)cc3)cc2F)CC1 [Compound 30, 5-{1-[2,5-Difluoro-4-(4-fluorophenoxy)benzoyl]piperidin-4-yl}-4-methoxypyridin-2-amine] are within 1.5-fold of each other in IC50: 0.135 µM for the first, 0.166 µM for the second.

Going from COc1cc(C(=O)N2CCC(c3cnc(N)cc3OC)CC2)c(F)cc1OCC1CC(F)(F)C1 [Compound 37, 5-(1-{4-[(3,3-Difluorocyclobutyl)methoxy]-2-fluoro-5-methoxybenzoyl}piperidin-4-yl)-4-methoxypyridin-2-amine] to COc1cc(C(=O)N2CCC(c3cnc(N)cc3OC)CC2)c(F)cc1OCC1CCC1 [Compound 36, 5-{1-[4-(Cyclobutylmethoxy)-2-fluoro-5-methoxybenzoyl]piperidin-4-yl}-4-methoxypyridin-2-amine], the IC50 falls from 0.478 µM to 0.135 µM (3.5-fold). The second is the more potent here.

COc1cc(N)ncc1C1CCN(C(=O)c2ccc(OCCC3CC3)cc2F)CC1 [Compound 42, 5-{1-[4-(2-Cyclopropylethoxy)-2-fluorobenzoyl]piperidin-4-yl}-4-methoxypyridin-2-amine] and CCCOc1ccc(C(=O)N2CCC(c3cnc(N)cc3OC)CC2)c(F)c1 [Compound 39, 5-[1-(2-Fluoro-4-propoxybenzoyl)piperidin-4-yl]-4-methoxypyridin-2-amine] are within 1.5-fold of each other in IC50: 0.789 µM for the first, 0.662 µM for the second.

Compared with Cc1cc(C2CCN(C(=O)c3ccc(Oc4ccc(F)cc4)cc3)CC2)nnc1N [Compound 50, 6-{1-[4-(4-Fluorophenoxy)benzoyl]piperidin-4-yl}-4-methylpyridazin-3-amine], COc1cc(N)ncc1C1CCN(C(=O)c2ccc(Oc3ccc(F)cc3)cc2)CC1 [Compound 32, 5-{1-[4-(4-Fluorophenoxy)benzoyl]piperidin-4-yl}-4-methoxypyridin-2-amine] is 3-fold lower in IC50: 0.288 µM for the first, 0.097 µM for the second. The second is the more potent here.

First: COc1cc(N)ncc1C1CCN(C(=O)c2ccc(OC[C@@H]3C[C@H]3C)cc2F)CC1 (relative stereo) [Compound 38, 5-[1-(2-Fluoro-4-{[trans-2-methylcyclopropyl]methoxy}benzoyl)piperidin-4-yl]-4-methoxypyridin-2-amine]
Second: COc1cc(N)ncc1C1CCN(C(=O)c2ccc(OCC3CCCCC3)cc2F)CC1 [Compound 41, 5-{1-[4-(Cyclohexylmethoxy)-2-fluorobenzoyl]piperidin-4-yl}-4-methoxypyridin-2-amine]
The IC50 of the first is 2.7-fold lower: 0.791 µM for the first, 2.17 µM for the second.

First: COc1cc(C(=O)N2CCC(c3cnc(N)cc3OC)CC2)c(F)cc1OCC1CC(C)C1 (stereo not shown) [Compound 34, 5-(1-{2-Fluoro-5-methoxy-4-[(3-methylcyclobutyl)methoxy]benzoyl}piperidin-4-yl)-4-methoxypyridin-2-amine]
Second: COc1cc(C(=O)N2CCC(c3cnc(N)cc3OC)CC2)c(F)cc1OCC(C)C [Compound 33, 5-{1-[2-Fluoro-5-methoxy-4-(2-methylpropoxy)benzoyl]piperidin-4-yl}-4-methoxypyridin-2-amine]
The IC50 of the first is 1.7-fold higher: 0.428 µM for the first, 0.25 µM for the second. The second is the more potent here.

Compared with Nc1ccc(C2CCN(C(=O)c3ccc(Oc4ccc(F)cc4)c(F)c3)CC2)nn1 [Compound 48, 6-{1-[3-Fluoro-4-(4-fluorophenoxy)benzoyl]piperidin-4-yl}pyridazin-3-amine], Nc1ccc(C2CCN(C(=O)c3ccc(Oc4ccc(F)cc4)cc3F)CC2)nn1 [Compound 46, 6-{1-[2-Fluoro-4-(4-fluorophenoxy)benzoyl]piperidin-4-yl}pyridazin-3-amine] is 2.5-fold lower in IC50: 0.141 µM for the first, 0.057 µM for the second.

COc1cc(C(=O)N2CCC(c3cnc(N)cc3OC)CC2)ccc1OCC1CCC1 [Compound 44, 5-{1-[4-(Cyclobutylmethoxy)-3-methoxybenzoyl]piperidin-4-yl}-4-methoxypyridin-2-amine] and COc1cc(C(=O)N2CCC(c3cnc(N)cc3OC)CC2)c(F)cc1Oc1ccc(F)cc1 [Compound 29, 5-{1-[2-Fluoro-4-(4-fluorophenoxy)-5-methoxybenzoyl]piperidin-4-yl}-4-methoxypyridin-2-amine] are within 1.5-fold of each other in IC50: 0.199 µM for the first, 0.158 µM for the second.

COc1cc(N)ncc1C1CCN(C(=O)c2ccc(OCc3ccon3)cc2F)CC1 [Compound 53, 5-(1-{2-Fluoro-4-[(1,2-oxazol-3-yl)methoxy]benzoyl}piperidin-4-yl)-4-methoxypyridin-2-amine] and COc1cc(N)ncc1C1CCN(C(=O)c2ccc(OCc3csnn3)cc2F)CC1 [Compound 40, 5-(1-{2-Fluoro-4-[(1,2,3-thiadiazol-4-yl)methoxy]benzoyl}piperidin-4-yl)-4-methoxypyridin-2-amine] are within 1.5-fold of each other in IC50: 0.641 µM for the first, 0.482 µM for the second.

First: COc1cc(N)ncc1C1CCN(C(=O)c2ccc(OCc3ccccc3)cc2F)CC1 [Compound 43, 5-{1-[4-(Benzyloxy)-2-fluorobenzoyl]piperidin-4-yl}-4-methoxypyridin-2-amine]
Second: COc1cc(N)ncc1C1CCN(C(=O)c2ccc(OCc3nccs3)cc2F)CC1 [Compound 54, 5-(1-{2-Fluoro-4-[(1,3-thiazol-2-yl)methoxy]benzoyl}piperidin-4-yl)-4-methoxypyridin-2-amine]
The IC50 of the first is 1.5-fold higher: 1.81 µM for the first, 1.19 µM for the second. The second is the more potent here.

COc1cc(N)ncc1C1CCN(C(=O)c2ccc(Oc3ccc(F)cc3)cc2F)CC1 [Compound 31, 5-{1-[2-Fluoro-4-(4-fluorophenoxy)benzoyl]piperidin-4-yl}-4-methoxypyridin-2-amine] and COc1cc(C(=O)N2CCC(c3nnc(N)cc3C)CC2)c(F)cc1Oc1ccc(F)cc1 [Compound 51, 6-{1-[2-Fluoro-4-(4-fluorophenoxy)-5-methoxybenzoyl]piperidin-4-yl}-5-methylpyridazin-3-amine] are within 1.5-fold of each other in IC50: 0.205 µM for the first, 0.182 µM for the second.

Nc1ccc(C2CCN(C(=O)c3ccc(Oc4ccccc4)c(C(F)(F)F)c3)CC2)nn1 [Compound 49, 6-{1-[4-Phenoxy-3-(trifluoromethyl)benzoyl]piperidin-4-yl}pyridazin-3-amine] was tested, and the IC50 was 1.16 µM.
